# In ChEMBL document CHEMBL5537181 (J Med Chem, 2024):
# Active and inactive are the calls of the source. No cut-off for these calls is given here.
# Legend:
# [1] = system: Rattus norvegicus; experiment: Analgesic activity in Chronic constriction injury rat model assessed as increase in paw withdrawal latency at 250 microg/kg,IM administration and measured for 0.5 to 48 hrs; format: functional, organism-based; details: dose 250.0 µg/kg, time 0.5-48 hrs
# [2] = biological target: Neuronal acetylcholine receptor; alpha9/alpha10 (Homo sapiens) (UniProt Q9UGM1+Q9GZZ6); experiment: Antagonist activity at human alpha9alpha10 nAChR expressed in acetylcholine-induced Xenopus laevis oocytes assessed as inhibition of acetylcholine-induced current at 30 nM at -120 mV holding potential by two electrode voltage-clamp assay; format: cell-based; details: Oocyte, filed as antagonist
# [3] = system: Rattus norvegicus; experiment: Analgesic activity in Chronic constriction injury rat model assessed as decrease in hyperalgesia at 250 microg/kg,IM administrated every 2 hrs for 14 days; format: functional, organism-based; details: dose 250.0 µg/kg, time 14.0 day
# [4] = biological target: T1, Potassium voltage-gated channel subfamily KQT member 3 (Homo sapiens) (UniProt O43525); experiment: Inhibition of KCNQ3 (unknown origin) at 1 uM
# T1 sequence (whole entry): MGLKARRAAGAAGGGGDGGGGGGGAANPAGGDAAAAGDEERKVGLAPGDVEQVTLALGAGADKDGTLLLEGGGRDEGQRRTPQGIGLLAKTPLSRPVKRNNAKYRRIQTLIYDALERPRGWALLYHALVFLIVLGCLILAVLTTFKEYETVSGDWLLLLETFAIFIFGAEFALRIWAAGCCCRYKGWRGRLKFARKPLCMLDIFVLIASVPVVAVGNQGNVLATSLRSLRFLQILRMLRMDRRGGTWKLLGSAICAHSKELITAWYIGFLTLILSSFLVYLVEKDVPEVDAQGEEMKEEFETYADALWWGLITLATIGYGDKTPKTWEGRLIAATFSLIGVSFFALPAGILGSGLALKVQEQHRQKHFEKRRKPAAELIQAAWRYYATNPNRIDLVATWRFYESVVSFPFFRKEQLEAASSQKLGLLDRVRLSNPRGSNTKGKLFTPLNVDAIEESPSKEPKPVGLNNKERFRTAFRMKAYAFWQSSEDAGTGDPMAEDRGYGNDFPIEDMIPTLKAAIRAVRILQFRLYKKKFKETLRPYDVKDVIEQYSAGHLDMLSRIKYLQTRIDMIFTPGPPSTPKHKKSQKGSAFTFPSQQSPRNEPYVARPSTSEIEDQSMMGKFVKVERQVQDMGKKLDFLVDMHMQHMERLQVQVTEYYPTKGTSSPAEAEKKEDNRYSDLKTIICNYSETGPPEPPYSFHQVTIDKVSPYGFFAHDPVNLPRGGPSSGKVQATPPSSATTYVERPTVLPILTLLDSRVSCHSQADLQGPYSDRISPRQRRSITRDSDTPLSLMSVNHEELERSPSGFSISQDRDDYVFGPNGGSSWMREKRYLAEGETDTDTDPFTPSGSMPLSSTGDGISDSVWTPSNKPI
# [5] = Toxicity in rat assessed as change in behavior at 250 microg/kg,IM administrated for 14 consecutive days by conditioned place preference assay; details: in vivo, 0.25 mg/kg, dose 250 µg/kg
# [6] = biological target: Neuronal acetylcholine receptor; alpha3/beta4 (Rattus norvegicus) (UniProt P04757+P12392); experiment: Antagonist activity at rat alpha3beta4 nAChR expressed in acetylcholine-induced Xenopus laevis oocytes assessed as inhibition of acetylcholine-induced current at 100 nM by two electrode voltage-clamp assay relative to control; format: cell-based; details: Oocyte
# [7] = biological target: Sodium channel protein type 9 subunit alpha (Homo sapiens) (UniProt Q15858); experiment: Inhibition of Nav1.7 (unknown origin) at 1 uM
# [8] = biological target: T2, Acid-sensing ion channel 3 (Homo sapiens) (UniProt Q9UHC3); experiment: Inhibition of ASIC3 (unknown origin) at 1 uM
# T2 sequence (whole entry): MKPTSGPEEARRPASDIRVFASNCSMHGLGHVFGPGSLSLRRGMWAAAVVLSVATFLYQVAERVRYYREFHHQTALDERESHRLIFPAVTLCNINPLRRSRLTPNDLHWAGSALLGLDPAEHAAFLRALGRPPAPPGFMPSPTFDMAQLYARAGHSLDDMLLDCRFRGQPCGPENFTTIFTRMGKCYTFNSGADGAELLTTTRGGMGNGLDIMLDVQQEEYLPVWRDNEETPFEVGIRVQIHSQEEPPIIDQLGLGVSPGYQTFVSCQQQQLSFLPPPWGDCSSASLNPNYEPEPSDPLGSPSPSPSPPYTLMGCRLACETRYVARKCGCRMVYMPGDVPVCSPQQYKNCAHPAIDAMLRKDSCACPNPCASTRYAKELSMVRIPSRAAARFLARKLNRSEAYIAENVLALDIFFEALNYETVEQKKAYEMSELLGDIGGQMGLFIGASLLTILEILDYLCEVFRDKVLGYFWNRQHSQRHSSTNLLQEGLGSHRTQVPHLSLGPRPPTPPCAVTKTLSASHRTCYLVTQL
# [9] = Antagonist activity at human alpha9alpha10G152N mutant nAChR expressed in acetylcholine-induced Xenopus laevis oocytes assessed as inhibition of acetylcholine-induced current at 1:3 ratio of protein by two electrode voltage-clamp assay; format: cell-based; details: Oocyte
# [10] = biological target: T3, Neuronal acetylcholine receptor; alpha3/beta2 (Homo sapiens) (UniProt P17787+P32297); experiment: Antagonist activity at human alpha3beta2 nAChR expressed in acetylcholine-induced Xenopus laevis oocytes assessed as inhibition of acetylcholine-induced current at 100 nM by two electrode voltage-clamp assay relative to control; format: cell-based; details: Oocyte
# [11] = Antagonist activity at human alpha9alpha10G152N mutant nAChR expressed in acetylcholine-induced Xenopus laevis oocytes assessed as inhibition of acetylcholine-induced current at 1:1 ratio of protein by two electrode voltage-clamp assay; format: cell-based; details: Oocyte
# [12] = biological target: T3, Neuronal acetylcholine receptor; alpha3/beta2 (Homo sapiens); experiment: Antagonist activity at human alpha3beta2 nAChR expressed in acetylcholine-induced Xenopus laevis oocytes assessed as inhibition of acetylcholine-induced current at 30 nM by two electrode voltage-clamp assay; format: cell-based; details: Oocyte
# [13] = biological target: Nicotinic acetylcholine receptor alpha9/alpha10 (Rattus norvegicus, UniProt P43144+Q9JLB5); experiment: Antagonist activity at rat wild type alpha9alpha10 nAChR expressed in acetylcholine-induced Xenopus laevis oocytes assessed as inhibition of acetylcholine-induced current at 1:1 ratio of protein by two electrode voltage-clamp assay; format: cell-based, Oocyte
# [14] = biological target: T4, Neuronal acetylcholine receptor subunit alpha-7 (Homo sapiens, UniProt P36544); experiment: Antagonist activity at human alpha7 nAChR expressed in acetylcholine-induced Xenopus laevis oocytes assessed as inhibition of acetylcholine-induced current at 100 nM by two electrode voltage-clamp assay; format: cell-based; details: Oocyte, filed as antagonist
# [15] = biological target: T5, Voltage-dependent N-type calcium channel subunit alpha-1B (Homo sapiens, UniProt Q00975); experiment: Inhibition of human Cav2.2 channel transfected in HEK293T cells assessed as inhibition of Cav2.2-mediated Ba2+ current measured for 3 to 5 days by whole-cell patch clamp assay; format: cell-based
# [16] = biological target: T5, Voltage-dependent N-type calcium channel subunit alpha-1B; experiment: Inhibition of human Cav2.2 channel transfected in HEK293T cells assessed as inhibition of Cav2.2-mediated Ba2+ current at 1 uM measured for 3 to 5 days by whole-cell patch clamp assay; format: cell-based; details: time 3-5 day
# [17] = biological target: T4, Neuronal acetylcholine receptor subunit alpha-7; experiment: Antagonist activity at human alpha7 nAChR expressed in acetylcholine-induced Xenopus laevis oocytes assessed as inhibition of acetylcholine-induced current by two electrode voltage-clamp assay; format: cell-based, Oocyte
# T4 sequence (P36544 whole entry): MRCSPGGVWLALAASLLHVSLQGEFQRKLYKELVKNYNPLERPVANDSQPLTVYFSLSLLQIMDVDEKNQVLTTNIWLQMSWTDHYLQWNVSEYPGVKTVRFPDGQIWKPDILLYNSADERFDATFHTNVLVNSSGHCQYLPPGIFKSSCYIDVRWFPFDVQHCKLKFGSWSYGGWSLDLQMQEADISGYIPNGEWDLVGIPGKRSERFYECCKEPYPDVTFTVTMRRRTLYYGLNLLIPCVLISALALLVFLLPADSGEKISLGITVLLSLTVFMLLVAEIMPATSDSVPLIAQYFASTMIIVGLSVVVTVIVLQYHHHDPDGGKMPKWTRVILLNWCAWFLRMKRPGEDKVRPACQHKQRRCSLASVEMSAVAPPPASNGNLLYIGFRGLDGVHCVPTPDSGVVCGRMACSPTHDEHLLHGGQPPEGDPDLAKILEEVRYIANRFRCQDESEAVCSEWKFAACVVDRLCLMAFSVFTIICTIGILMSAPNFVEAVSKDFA
# Sequence of Sodium channel protein type 9 subunit alpha (Homo sapiens) (Q15858 whole entry, looked up): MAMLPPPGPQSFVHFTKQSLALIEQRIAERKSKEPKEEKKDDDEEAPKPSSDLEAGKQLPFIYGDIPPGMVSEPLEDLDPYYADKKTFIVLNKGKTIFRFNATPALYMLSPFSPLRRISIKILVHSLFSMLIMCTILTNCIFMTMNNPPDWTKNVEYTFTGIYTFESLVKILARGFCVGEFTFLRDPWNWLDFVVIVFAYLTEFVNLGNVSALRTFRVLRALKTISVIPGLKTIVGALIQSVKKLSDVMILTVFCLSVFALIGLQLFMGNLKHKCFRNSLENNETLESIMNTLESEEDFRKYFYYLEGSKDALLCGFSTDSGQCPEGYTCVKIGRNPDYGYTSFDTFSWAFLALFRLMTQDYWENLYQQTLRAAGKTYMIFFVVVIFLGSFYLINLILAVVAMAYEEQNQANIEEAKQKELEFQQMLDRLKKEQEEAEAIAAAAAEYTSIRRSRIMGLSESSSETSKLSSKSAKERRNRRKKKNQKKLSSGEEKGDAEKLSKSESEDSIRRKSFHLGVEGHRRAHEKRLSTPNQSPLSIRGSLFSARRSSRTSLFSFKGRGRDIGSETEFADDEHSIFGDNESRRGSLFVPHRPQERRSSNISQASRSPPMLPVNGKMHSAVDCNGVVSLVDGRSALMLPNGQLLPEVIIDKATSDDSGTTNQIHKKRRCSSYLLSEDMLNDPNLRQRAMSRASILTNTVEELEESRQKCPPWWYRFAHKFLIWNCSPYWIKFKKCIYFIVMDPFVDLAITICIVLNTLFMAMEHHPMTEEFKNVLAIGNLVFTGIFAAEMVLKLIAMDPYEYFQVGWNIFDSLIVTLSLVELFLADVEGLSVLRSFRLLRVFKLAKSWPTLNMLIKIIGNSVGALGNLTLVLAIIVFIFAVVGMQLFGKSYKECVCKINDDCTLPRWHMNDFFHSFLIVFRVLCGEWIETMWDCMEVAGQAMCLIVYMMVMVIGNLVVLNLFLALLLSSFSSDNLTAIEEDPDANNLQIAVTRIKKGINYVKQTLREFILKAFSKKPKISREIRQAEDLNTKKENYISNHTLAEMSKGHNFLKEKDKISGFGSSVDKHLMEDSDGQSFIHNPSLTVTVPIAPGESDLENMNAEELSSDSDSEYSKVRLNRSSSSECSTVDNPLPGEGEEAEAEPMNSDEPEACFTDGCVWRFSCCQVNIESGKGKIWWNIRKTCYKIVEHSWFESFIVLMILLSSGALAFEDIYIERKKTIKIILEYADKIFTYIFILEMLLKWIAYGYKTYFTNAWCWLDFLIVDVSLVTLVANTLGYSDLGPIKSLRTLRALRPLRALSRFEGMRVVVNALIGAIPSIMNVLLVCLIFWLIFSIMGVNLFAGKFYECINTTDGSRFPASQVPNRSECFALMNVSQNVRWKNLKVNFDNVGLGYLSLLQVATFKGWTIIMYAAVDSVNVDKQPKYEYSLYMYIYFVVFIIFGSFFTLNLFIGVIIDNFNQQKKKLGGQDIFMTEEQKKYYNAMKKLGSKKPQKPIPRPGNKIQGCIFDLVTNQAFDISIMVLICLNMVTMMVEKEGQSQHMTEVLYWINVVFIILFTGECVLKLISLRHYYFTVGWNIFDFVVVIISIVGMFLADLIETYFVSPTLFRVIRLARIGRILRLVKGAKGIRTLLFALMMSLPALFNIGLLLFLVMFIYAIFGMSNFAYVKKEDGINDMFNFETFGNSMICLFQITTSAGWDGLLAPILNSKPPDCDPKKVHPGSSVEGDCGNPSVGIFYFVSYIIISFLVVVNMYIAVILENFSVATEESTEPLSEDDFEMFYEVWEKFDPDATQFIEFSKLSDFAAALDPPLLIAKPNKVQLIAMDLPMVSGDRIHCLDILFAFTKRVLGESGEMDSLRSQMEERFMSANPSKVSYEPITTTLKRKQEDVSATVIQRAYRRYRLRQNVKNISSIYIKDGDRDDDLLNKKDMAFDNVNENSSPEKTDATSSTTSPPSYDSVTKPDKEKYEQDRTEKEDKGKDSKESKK
# Sequence of Nicotinic acetylcholine receptor alpha9/alpha10 (P43144 whole entry): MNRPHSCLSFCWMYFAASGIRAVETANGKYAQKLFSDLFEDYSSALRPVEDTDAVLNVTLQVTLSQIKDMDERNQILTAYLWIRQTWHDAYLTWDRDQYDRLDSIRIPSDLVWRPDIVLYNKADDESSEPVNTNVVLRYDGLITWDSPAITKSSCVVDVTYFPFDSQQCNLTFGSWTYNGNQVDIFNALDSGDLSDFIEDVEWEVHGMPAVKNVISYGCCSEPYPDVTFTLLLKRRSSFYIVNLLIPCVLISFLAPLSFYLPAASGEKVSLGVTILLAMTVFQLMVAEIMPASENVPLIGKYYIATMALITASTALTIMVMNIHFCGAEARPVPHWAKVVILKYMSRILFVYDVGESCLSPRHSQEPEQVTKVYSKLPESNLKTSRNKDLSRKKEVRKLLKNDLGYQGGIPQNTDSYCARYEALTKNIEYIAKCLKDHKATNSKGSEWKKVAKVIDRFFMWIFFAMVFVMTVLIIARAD
# Sequence of Nicotinic acetylcholine receptor alpha9/alpha10 (Q9JLB5 whole entry): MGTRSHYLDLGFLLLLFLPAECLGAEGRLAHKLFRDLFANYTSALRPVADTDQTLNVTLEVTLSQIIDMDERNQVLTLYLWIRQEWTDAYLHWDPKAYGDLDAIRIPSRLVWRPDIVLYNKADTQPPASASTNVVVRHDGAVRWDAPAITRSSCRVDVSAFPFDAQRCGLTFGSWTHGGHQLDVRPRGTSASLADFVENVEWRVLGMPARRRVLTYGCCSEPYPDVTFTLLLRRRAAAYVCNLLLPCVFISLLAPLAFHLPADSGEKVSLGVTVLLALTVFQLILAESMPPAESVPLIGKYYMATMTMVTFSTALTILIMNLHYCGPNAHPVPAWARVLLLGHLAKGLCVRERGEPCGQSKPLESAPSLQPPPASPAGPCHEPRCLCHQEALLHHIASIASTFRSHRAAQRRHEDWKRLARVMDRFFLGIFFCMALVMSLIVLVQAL
smiles,measurement,setting,value
CC[C@H](C)[C@H](NC(=O)[C@H](CCCNC(=N)N)NC(=O)[C@H](CCCNC(=N)N)NC(=O)[C@H](Cc1ccc(O)cc1)NC(=O)[C@H](CCCNC(=N)N)NC(=O)[C@H](CCCNC(=N)N)NC(=O)[C@H](CCCNC(=N)N)NC(=O)[C@H](CCCNC(=N)N)NC(=O)[C@H](CC(=O)O)NC(=O)[C@H](Cc1ccc(O)cc1)NC(=O)[C@@H]1CCCN1C(=O)[C@H](CO)NC(=O)[C@H](CCCNC(=N)N)NC(=O)[C@H](Cc1ccc(O)cc1)NC(=O)[C@H](CCCNC(=N)N)NC(=O)CN)C(=O)N[C@H](C(=O)N[C@@H](CC(=O)O)C(N)=O)[C@@H](C)O,Activity,[1],Active
same,inhibition,[2],Active
same,Activity,[3],Active
same,inhibition,[4],inactive
same,Activity,[5],Non-Toxic
same,inhibition,[6],20%
same,inhibition,[7],inactive
same,inhibition,[8],inactive
same,IC50,[9],0.021 µM
same,inhibition,[10],25%
same,IC50,[11],0.0252 µM
same,inhibition,[12],inactive
same,IC50,[13],0.0183 µM
same,inhibition,[14],80%
same,IC50,[15],0.0046 µM
same,inhibition,[16],inactive
same,IC50,[17],0.0438 µM
